Reference: ChEMBL document CHEMBL4325862, “Identification of novel quinazoline derivatives as potent antiplasmodial agents” (Eur J Med Chem, 2019)
Active and inactive are the calls of the source. The rule behind the calls is not given here.

Key:
[1] = Selectivity index, ratio of IC50 for mouse spleen cells to IC50 for asynchronous form of Plasmodium falciparum 3D7 infected in human erythrocytes; type: toxicity, cell-based; details: read-out: Ratio IC50
Plasmodium falciparum [2] = assay: Antiplasmodial activity against asynchronous form of Plasmodium falciparum W2 infected in human erythrocytes assessed as parasite growth inhibition after 48 hrs by SYBR green1 staining based flow cytometry; type: functional, organism-based; details: W2, 48 h
[3] = Plasma concentration in Crl:NRMI mouse at 10 mg/kg, iv measured after 180 mins by LC-MS/MS analysis; type: ADME, organism-based
[4] = molecular target: T1, Histone-lysine N-methyltransferase EHMT2 (Homo sapiens, UniProt Q96KQ7); assay: Inhibition of recombinant human N-terminal GST-fused G9a (786 to 1210 residues) expressed in Escherichia coli using biotinylated H3 (1 to 21 residues) as substrate measured after 1 hr in presence of 3H-Adomet by filter binding assay
T1 sequence (Q96KQ7 whole entry): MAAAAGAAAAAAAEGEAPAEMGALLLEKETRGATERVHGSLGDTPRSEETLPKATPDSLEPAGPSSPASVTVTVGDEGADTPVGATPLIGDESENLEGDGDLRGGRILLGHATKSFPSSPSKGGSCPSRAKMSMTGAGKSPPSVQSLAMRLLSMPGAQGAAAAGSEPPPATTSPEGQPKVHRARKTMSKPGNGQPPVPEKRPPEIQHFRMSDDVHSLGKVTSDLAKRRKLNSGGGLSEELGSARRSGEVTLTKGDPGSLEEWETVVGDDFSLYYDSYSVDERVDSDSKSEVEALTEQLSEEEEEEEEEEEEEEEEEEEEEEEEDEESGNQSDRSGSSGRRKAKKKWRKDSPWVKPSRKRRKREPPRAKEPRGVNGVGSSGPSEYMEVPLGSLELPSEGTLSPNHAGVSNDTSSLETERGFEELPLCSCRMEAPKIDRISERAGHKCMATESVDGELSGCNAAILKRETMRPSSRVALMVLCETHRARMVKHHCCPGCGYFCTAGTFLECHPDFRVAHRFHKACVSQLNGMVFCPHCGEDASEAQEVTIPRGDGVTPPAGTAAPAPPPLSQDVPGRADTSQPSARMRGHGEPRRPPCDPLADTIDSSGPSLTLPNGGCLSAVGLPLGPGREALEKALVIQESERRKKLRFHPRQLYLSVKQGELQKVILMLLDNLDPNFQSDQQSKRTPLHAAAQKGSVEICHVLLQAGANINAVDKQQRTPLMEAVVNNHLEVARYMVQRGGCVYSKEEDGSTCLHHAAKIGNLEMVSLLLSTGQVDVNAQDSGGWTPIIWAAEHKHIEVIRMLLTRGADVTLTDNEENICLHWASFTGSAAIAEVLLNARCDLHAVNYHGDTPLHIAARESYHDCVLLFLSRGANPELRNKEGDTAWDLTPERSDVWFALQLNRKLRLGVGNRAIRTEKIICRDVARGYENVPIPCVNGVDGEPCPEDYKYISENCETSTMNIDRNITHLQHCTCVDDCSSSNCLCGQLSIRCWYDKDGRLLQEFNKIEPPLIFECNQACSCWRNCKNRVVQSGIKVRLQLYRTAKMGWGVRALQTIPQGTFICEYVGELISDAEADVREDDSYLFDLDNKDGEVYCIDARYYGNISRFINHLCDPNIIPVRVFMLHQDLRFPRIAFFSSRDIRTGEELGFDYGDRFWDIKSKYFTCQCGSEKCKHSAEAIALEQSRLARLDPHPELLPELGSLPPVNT

Plasmodium berghei [5] = assay: Antimalarial activity against Plasmodium berghei ANKA infected in BALB/c mouse assessed as reduction in parasitemia at 20 mg/kg, po administered twice daily for 4 days by Giemsa-staining based microscopic analysis; type: functional, organism-based
[6] = Plasma concentration in Crl:NRMI mouse at 10 mg/kg, po administered via gavage measured after 180 mins by LC-MS/MS analysis; type: ADME, organism-based
[7] = molecular target: DNA (cytosine-5)-methyltransferase 1 (Homo sapiens, UniProt P26358); assay: Inhibition of recombinant human DNMT1 using biotinylated DNA duplex as substrate measured after 2 hrs in presence of Adomet/[methyl-3H]Adomet by topcount method
[8] = Plasma concentration in Crl:NRMI mouse at 10 mg/kg, iv measured after 60 mins by LC-MS/MS analysis; type: ADME, organism-based
[9] = Plasma concentration in Crl:NRMI mouse at 10 mg/kg, iv measured after 15 mins by LC-MS/MS analysis; type: ADME, organism-based
Plasmodium berghei [10] = assay: Antimalarial activity against Plasmodium berghei ANKA infected in BALB/c mouse assessed as reduction in parasitemia at 20 mg/kg, po administered twice daily for 4 days measured day 6 to 11 post infection by Giemsa-staining based microscopic analysis; type: functional, organism-based
Plasmodium berghei [11] = assay: Antimalarial activity against Plasmodium berghei ANKA infected in BALB/c mouse assessed as reduction in parasitemia at 20 mg/kg, po administered twice daily for 5 days by Giemsa-staining based microscopic analysis; type: functional, organism-based
Plasmodium falciparum [12] = assay: Antiplasmodial activity against asynchronous form of Plasmodium falciparum 3D7 infected in human erythrocytes assessed as parasite growth inhibition at 10 uM after 48 hrs by SYBR green1 staining based flow cytometry relative to control; type: functional; details: 3D7, 48 h
HFF = assay: Cytotoxicity against HFF; type: cell-based; details: Homo sapiens
[13] = Plasma concentration in Crl:NRMI mouse at 10 mg/kg, po administered via gavage measured after 60 mins by LC-MS/MS analysis; type: ADME, organism-based
[14] = Solubility of the compound in DPBS at >1 ug/ml; type: physicochemical
[15] = Cytotoxicity against mouse spleen cells; type: cell-based
Plasmodium falciparum [16] = assay: Antiplasmodial activity against asynchronous form of Plasmodium falciparum 3D7 infected in human erythrocytes assessed as parasite growth inhibition after 48 hrs by SYBR green1 staining based flow cytometry; type: functional, organism-based; details: 3D7, 48 h
Plasmodium falciparum [17] = assay: Antiplasmodial activity against Plasmodium falciparum Dd2 infected in human erythrocytes assessed as reduction in [3H]-hypoxanthine incorporation measured after 48 hrs by microbeta liquid scintillation counting method; type: functional, organism-based
[18] = Plasma concentration in Crl:NRMI mouse at 10 mg/kg, po administered via gavage measured after 30 mins by LC-MS/MS analysis; type: ADME, organism-based
[19] = molecular target: T2, DNA (cytosine-5)-methyltransferase 3A (Homo sapiens, UniProt Q9Y6K1); assay: Inhibition of recombinant human DNMT3a C-terminal catalytic domain (623 to 908 residues) using 5'-biotinylated/3'-FAM-oligonucleotide as substrate measured after 1 hr in presence of Adomet by fluorescence assay
[20] = Stability in phosphate buffered saline at pH 7.4 assessed as parent compound remaining after 24 hrs by UV/RP-HPLC analysis; type: physicochemical; details: read-out: Stability
Plasmodium berghei [21] = assay: Antimalarial activity against Plasmodium berghei ANKA infected in BALB/c mouse assessed as reduction in parasitemia at 10 mg/kg, po administered once daily for 4 days by Giemsa-staining based microscopic analysis; type: functional, organism-based
[22] = Stability in phosphate buffered saline at pH 7.4 after 24 hrs by UV/RP-HPLC analysis; type: physicochemical; details: buffer, pH 7.4, 24 h
[23] = Acute toxicity in Crl:NRMI mouse assessed as death at 50 mg/kg, iv measured after 15 to 180 mins by LC-MS/MS analysis; type: organism-based; details: in vivo
Plasmodium berghei [24] = assay: Antimalarial activity against Plasmodium berghei ANKA infected in BALB/c mouse assessed as reduction in parasitemia at 10 mg/kg, po administered twice daily for 4 days by Giemsa-staining based microscopic analysis; type: functional, organism-based
[25] = Plasma concentration in Crl:NRMI mouse at 50 mg/kg, po administered via gavage measured after 180 mins by LC-MS/MS analysis; type: ADME, organism-based
[26] = Plasma concentration in Crl:NRMI mouse at 50 mg/kg, po administered via gavage measured after 30 mins by LC-MS/MS analysis; type: ADME, organism-based
[27] = Toxicity in BALB/c mouse infected with Plasmodium berghei ANKA assessed as death at 50 mg/kg, po administered twice daily for 4 days; type: organism-based; details: in vivo, 96 h
[28] = Plasma concentration in Crl:NRMI mouse at 50 mg/kg, po administered via gavage measured after 60 mins by LC-MS/MS analysis; type: ADME, organism-based
[29] = Toxicity in BALB/c mouse infected with Plasmodium berghei ANKA assessed as death at 25 mg/kg, po administered twice daily for 4 days; type: organism-based; details: in vivo, 96 h
Plasmodium berghei [30] = assay: Antimalarial activity against Plasmodium berghei ANKA infected in BALB/c mouse assessed as parasitemia at 25 mg/kg, po administered twice daily for 4 days measured up to 14 days post infection by Giemsa-staining based microscopic analysis (reference value: 4%); type: functional
Plasmodium berghei [31] = assay: Antimalarial activity against Plasmodium berghei ANKA infected in BALB/c mouse assessed as reduction in parasitemia at 25 mg/kg, po administered twice daily for 4 days by Giemsa-staining based microscopic analysis; type: functional, organism-based
[32] = molecular target: T2, DNA (cytosine-5)-methyltransferase 3A; assay: Inhibition of recombinant human DNMT3a C-terminal catalytic domain (623 to 908 residues) at 10 uM using 5'-biotinylated/3'-FAM-oligonucleotide as substrate measured after 1 hr in presence of Adomet by fluorescence assay relative to control
Plasmodium berghei [33] = assay: Antimalarial activity against Plasmodium berghei ANKA infected in BALB/c mouse assessed as parasitemia at 50 mg/kg, po administered twice daily for 4 days measured up to 14 days post infection by Giemsa-staining based microscopic analysis (reference value: 31 to 58%); type: functional
Plasmodium berghei [34] = assay: Antimalarial activity against Plasmodium berghei ANKA infected in BALB/c mouse assessed as reduction in parasitemia at 50 mg/kg, po administered twice daily for 4 days by Giemsa-staining based microscopic analysis; type: functional, organism-based

Sequence of DNA (cytosine-5)-methyltransferase 1 (P26358 whole entry): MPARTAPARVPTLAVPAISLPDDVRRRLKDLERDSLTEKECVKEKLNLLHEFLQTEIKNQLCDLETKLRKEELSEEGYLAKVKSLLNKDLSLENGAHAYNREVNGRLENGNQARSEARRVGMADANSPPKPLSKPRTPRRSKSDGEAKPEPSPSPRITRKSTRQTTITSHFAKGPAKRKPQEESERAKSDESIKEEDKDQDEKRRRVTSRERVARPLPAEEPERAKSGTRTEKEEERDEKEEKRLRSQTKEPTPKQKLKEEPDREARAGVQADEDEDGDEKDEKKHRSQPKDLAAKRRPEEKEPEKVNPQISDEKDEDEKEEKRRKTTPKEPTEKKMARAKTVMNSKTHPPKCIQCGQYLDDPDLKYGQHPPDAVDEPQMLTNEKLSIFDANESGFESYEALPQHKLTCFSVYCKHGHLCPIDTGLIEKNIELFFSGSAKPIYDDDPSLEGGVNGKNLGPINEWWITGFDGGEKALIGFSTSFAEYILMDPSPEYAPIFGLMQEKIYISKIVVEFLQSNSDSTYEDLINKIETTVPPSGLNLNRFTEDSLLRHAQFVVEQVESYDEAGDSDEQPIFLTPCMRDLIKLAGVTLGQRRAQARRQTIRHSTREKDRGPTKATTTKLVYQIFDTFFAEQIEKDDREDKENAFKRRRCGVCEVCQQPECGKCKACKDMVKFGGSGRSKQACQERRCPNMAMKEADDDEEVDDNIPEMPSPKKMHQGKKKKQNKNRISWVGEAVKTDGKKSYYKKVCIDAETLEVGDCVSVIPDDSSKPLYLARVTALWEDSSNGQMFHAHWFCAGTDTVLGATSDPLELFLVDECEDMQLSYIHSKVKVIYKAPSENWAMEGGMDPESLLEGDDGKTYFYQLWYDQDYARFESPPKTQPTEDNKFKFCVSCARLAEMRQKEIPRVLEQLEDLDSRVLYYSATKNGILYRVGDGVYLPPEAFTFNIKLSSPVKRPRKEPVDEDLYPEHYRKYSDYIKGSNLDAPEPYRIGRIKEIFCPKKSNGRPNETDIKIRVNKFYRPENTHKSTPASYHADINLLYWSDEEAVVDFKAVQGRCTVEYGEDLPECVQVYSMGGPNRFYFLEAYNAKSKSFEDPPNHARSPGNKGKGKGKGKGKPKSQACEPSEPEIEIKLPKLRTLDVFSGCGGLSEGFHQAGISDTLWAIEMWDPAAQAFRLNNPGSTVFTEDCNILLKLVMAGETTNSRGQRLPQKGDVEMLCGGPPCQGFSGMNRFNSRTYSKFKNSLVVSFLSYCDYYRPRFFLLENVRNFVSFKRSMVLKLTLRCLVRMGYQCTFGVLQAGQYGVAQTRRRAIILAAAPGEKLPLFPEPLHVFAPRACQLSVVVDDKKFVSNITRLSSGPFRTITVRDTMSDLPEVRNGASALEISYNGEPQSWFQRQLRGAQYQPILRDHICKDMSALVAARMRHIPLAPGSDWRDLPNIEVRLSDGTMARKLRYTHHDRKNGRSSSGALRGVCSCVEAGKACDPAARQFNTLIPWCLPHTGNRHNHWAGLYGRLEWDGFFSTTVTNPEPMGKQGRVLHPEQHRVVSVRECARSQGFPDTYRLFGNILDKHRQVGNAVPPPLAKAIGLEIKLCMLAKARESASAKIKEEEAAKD
T2 sequence (Q9Y6K1 whole entry, looked up, the tested form may be a part): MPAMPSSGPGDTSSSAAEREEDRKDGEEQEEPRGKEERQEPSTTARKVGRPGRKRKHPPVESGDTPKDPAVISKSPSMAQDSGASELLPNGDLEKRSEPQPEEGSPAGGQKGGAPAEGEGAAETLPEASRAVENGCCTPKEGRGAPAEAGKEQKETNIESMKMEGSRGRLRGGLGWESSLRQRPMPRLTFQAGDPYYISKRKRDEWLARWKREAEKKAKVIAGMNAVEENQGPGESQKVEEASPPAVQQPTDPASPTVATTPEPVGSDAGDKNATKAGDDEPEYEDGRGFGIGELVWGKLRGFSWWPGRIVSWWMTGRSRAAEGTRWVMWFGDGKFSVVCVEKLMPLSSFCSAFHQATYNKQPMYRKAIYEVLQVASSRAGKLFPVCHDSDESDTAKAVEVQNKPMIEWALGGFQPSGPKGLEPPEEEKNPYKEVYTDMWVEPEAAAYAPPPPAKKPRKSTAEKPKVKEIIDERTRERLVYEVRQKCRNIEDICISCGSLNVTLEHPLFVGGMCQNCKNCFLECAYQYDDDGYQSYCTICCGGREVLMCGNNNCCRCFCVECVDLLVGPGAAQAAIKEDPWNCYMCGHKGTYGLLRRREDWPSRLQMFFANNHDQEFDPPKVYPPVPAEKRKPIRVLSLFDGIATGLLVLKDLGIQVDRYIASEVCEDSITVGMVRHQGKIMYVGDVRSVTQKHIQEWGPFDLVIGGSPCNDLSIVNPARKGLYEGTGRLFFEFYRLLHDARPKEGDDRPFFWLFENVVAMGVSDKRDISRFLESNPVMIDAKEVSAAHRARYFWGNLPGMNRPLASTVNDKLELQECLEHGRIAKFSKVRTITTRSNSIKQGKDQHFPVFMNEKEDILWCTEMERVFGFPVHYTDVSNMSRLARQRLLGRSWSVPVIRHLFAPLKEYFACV

SMILES | selectivity ratio [1] | IC50 (Plasmodium falciparum [2]) | EC50 [4] | EC50 [7] | inhibition at 10 µM (Plasmodium falciparum [12]) | IC50 (HFF) | IC50 [15] | IC50 (Plasmodium falciparum [16]) | IC50 (Plasmodium falciparum [17]) | EC50 [19] | Stability [22] | Activity [23] | concentration at 3 h [25] | concentration at 0.5 h [26] | concentration at 1 h [28] | also measured
COc1cc2nc(NCc3ccc(F)cc3)nc(NC3CCN(C(=O)OC(C)(C)C)CC3)c2cc1OC | > 500 | 0.0436 µM | 137 µM | > 100 µM | 100% | 7.17 µM | > 10 µM | 0.0187 to 0.0189 µM | 0.0185 µM | 8.7 µM | – | – | – | – | – | concentration at 3 h [3]: 220 to 460 nM; Activity (Plasmodium berghei [5]): Active; concentration at 3 h [6]: 30 nM; concentration at 1 h [8]: 930 to 1110 nM; concentration at 0.25 h [9]: 3410 to 5110 nM; Activity (Plasmodium berghei [10]): inactive; Activity (Plasmodium berghei [11]): Active; concentration at 1 h [13]: 100 to 280 nM; solubility [14]: Insoluble; concentration at 0.5 h [18]: 120 to 130 nM; remaining at 24 h [20]: 60%
CCN(CC)CCCC(C)Nc1ccnc2cc(Cl)ccc12 (configuration not stated) | – | – | – | – | – | – | – | – | – | – | – | – | – | – | – | Activity (Plasmodium berghei [21]): Active
COc1cc2c(NC3CCN(Cc4ccccc4)CC3)nc(N3CCN(c4ccccc4)CC3)nc2cc1OCc1ccccc1 | > 295 | 0.0399 µM | > 100 µM | > 100 µM | 100% | 5.63 µM | > 10 µM | 0.034 µM | 0.0813 µM | 1.6 µM | Stable | Toxic | 280 to 390 nM | 380 to 940 nM | 480 to 700 nM | Activity (Plasmodium berghei [24]): Active; Activity [27]: Toxic; Activity [29]: Non-Toxic; Activity (Plasmodium berghei [30]): 2%; Activity (Plasmodium berghei [31]): Active
COc1cc2c(NCCNc3cccc4ccccc34)nc(N3CCN(c4ccccc4)CC3)nc2cc1OCc1ccccc1 | – | – | – | – | 99.6% | – | – | 0.0562 µM | – | – | – | – | – | – | – | inhibition [32]: 15%
COc1cc2c(NC3CCN(Cc4ccccc4)CC3)nc(N3CCN(c4ccccc4)CC3)nc2cc1O | 255 | 0.0186 µM | > 100 µM | > 100 µM | 100% | 7.21 µM | 2.58 µM | 0.0101 µM | 0.0426 µM | 6.2 µM | Stable | Toxic | 290 to 670 nM | 3430 to 4570 nM | 1040 to 3520 nM | Activity (Plasmodium berghei [33]): <10%; Activity (Plasmodium berghei [34]): Active
